From ChEMBL document CHEMBL1201862, “PubChem BioAssay data set” (2004) come the findings set out here.

Test systems include SF-539; KM12; MDA-N; ACHN; MDA-MB-435; COLO 205; MOLT-4; A498; HCT-116; SNB-19; RPMI-8226; HOP-92; OVCAR-3; SN12C; CCRF-CEM; SW-620; SK-MEL-28; OVCAR-8; MDA-MB-231; TK-10.
Common to all, as to assay: NCI tumour cell line growth inhibition, 48 h

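Five compound concentrations were applied to cells in 96-well plates for 48 hours; endpoints were derived by simple linear interpolation of the resulting dose-response curve. GI50 = concentration required for 50% inhibition of growth.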 The source made the active and inactive calls. Cut-off read from the data, not from the text of the source: active = GI50 up to about 1.1 µM and inactive = higher.

With `COc1ccc2[nH]c3c(c2c1)COc1ccccc1C3=O`, the GI50 is 89.1 µM (inactive) in the experiment with SF-539; > 100 µM (inactive) with KM12; > 100 µM (inactive) with MDA-N; > 100 µM (inactive) in the experiment with ACHN; 25.4 µM (inactive) in the experiment on MDA-MB-435; > 100 µM (inactive) with COLO 205. The GI50 in the experiment with MOLT-4, with A498, in the experiment on HCT-116, in the experiment with SNB-19, with RPMI-8226 and in the experiment with HOP-92 was > 100 µM (inactive) each time. The GI50 in the experiment with OVCAR-3, with SN12C, in the experiment with CCRF-CEM, in the experiment on SW-620, in the experiment with SK-MEL-28 and with OVCAR-8 was > 100 µM (inactive) each time. The GI50 in the experiment with MDA-MB-231 and with TK-10 was > 100 µM (inactive) in each case.

Consider `C=C1C[C@@H]2O[C@H]3[C@H]4[C@@H](C[C@@H](C)[C@@H](OC(C)=O)[C@H]42)[C@@H](C)CO[C@@]3(C)[C@H](OC(=O)CCCCCCC)C[C@H]1O`, for which the GI50 is 23.4 µM (inactive) in the experiment with SF-539; 16.7 µM (inactive) in the experiment with KM12; 16.7 µM (inactive) in the experiment on MDA-N; 20.7 µM (inactive) in the experiment on ACHN; 18.7 µM (inactive) with MDA-MB-435; 16.4 µM (inactive) with COLO 205. Further, the GI50 was 22.9 µM (inactive) in the experiment on MOLT-4; 16.2 µM (inactive) in the experiment on A498; 16.5 µM (inactive) in the experiment on HCT-116; 16.7 µM (inactive) with SNB-19; 16.1 µM (inactive) with RPMI-8226; 15.2 µM (inactive) with HOP-92. Moreover, the GI50 in the experiment with OVCAR-3 is 22.5 µM (inactive); in the experiment on SN12C, 17.3 µM (inactive); in the experiment with CCRF-CEM it was 14.3 µM (inactive); in the experiment on SW-620, 21.4 µM (inactive); with SK-MEL-28 it was 17.4 µM (inactive); in the experiment on OVCAR-8, 16.2 µM (inactive). Moreover, the values for the GI50 in the experiment with MDA-MB-231 and in the experiment with TK-10 were 13.8 µM (inactive) and 17.2 µM (inactive), respectively.

Take `CCN(CC)C(=S)SS(=O)(=O)c1ccccc1C(=O)O`: the GI50 with SF-539 was > 100 µM (inactive); in the experiment on KM12 it was > 100 µM (inactive); in the experiment on MDA-N it was > 100 µM (inactive); in the experiment with ACHN, > 70.8 µM (inactive); with MDA-MB-435 it was > 100 µM (inactive); in the experiment with COLO 205 it was > 100 µM (inactive). The GI50 in the experiment on MOLT-4 is 0.933 µM (active); in the experiment with A498, > 38 µM (inactive); with HCT-116, > 96.6 µM (inactive); in the experiment with SNB-19 it was > 94.2 µM (inactive); with RPMI-8226, > 100 µM (inactive); in the experiment on HOP-92 it was > 100 µM (inactive). Besides, the GI50 in the experiment on OVCAR-3 is > 100 µM (inactive); in the experiment on SN12C, > 94.8 µM (inactive); in the experiment with CCRF-CEM, 82 µM (inactive); in the experiment on SW-620, > 100 µM (inactive); with SK-MEL-28, > 100 µM (inactive); in the experiment with OVCAR-8 it was > 100 µM (inactive). In addition, the GI50 in the experiment on MDA-MB-231 and with TK-10 was > 100 µM (inactive) throughout.

As for `Cc1cc(S(=O)(=O)NC2=Nc3ccccc3C(c3ccccc3)N2)c(S)cc1Cl` (stereo not given), the GI50 was > 100 µM (inactive) in the experiment on SF-539; 58.6 µM (inactive) in the experiment with KM12; 78 µM (inactive) in the experiment with MDA-N; > 100 µM (inactive) with ACHN; 31.7 µM (inactive) in the experiment with MDA-MB-435; > 100 µM (inactive) with COLO 205. The GI50 with MOLT-4 was 81.8 µM (inactive); in the experiment with A498, > 100 µM (inactive); with HCT-116 it was 7.13 µM (inactive); in the experiment with SNB-19, 34 µM (inactive); in the experiment with RPMI-8226, 63.7 µM (inactive); in the experiment on HOP-92, > 100 µM (inactive). The GI50 was > 100 µM (inactive) in the experiment with OVCAR-3; 50.7 µM (inactive) in the experiment on SN12C; 32.6 µM (inactive) in the experiment on CCRF-CEM; > 100 µM (inactive) with SW-620; > 100 µM (inactive) in the experiment on SK-MEL-28; > 100 µM (inactive) with OVCAR-8. Besides, the GI50 in the experiment with MDA-MB-231 was 95.3 µM (inactive); in the experiment on TK-10, > 100 µM (inactive).

Regarding `Cc1cc(NS(=O)(=O)c2ccc(NC(=O)c3ccc4nc5ccccc5c(Nc5ccc(S(=O)(=O)N=C(N)N)cc5)c4c3)cc2)no1`, the GI50 in the experiment on SF-539 was 20.8 µM (inactive); in the experiment with KM12 it was 17.1 µM (inactive); in the experiment on MDA-N it was 19.5 µM (inactive); in the experiment with ACHN it was 13.6 µM (inactive); with MDA-MB-435, 19.9 µM (inactive); in the experiment on COLO 205, 18.8 µM (inactive). Also, the GI50 with MOLT-4 was 17.1 µM (inactive); with A498, 19.5 µM (inactive); with HCT-116, 17.3 µM (inactive); in the experiment on SNB-19, 29 µM (inactive); in the experiment on RPMI-8226, 23.7 µM (inactive); with HOP-92 it was 14.7 µM (inactive). Further, the GI50 is 17.7 µM (inactive) with OVCAR-3; 17 µM (inactive) in the experiment on SN12C; 11.2 µM (inactive) in the experiment with CCRF-CEM; 20.8 µM (inactive) in the experiment on SW-620; 18.2 µM (inactive) in the experiment with SK-MEL-28; 18.2 µM (inactive) in the experiment with OVCAR-8. Besides, the GI50 in the experiment on MDA-MB-231 is 14.5 µM (inactive); in the experiment on TK-10 it was 25.5 µM (inactive).

Turning to `COc1ccc2nc3cc(Cl)ccc3c(NCCCN(C)CCCNc3ccc4ncn5c6ccccc6c(=O)c3c45)c2c1`, the GI50 in the experiment on SF-539 is 0.0861 µM (active); with KM12, 0.123 µM (active); in the experiment with MDA-N it was 0.0817 µM (active); with ACHN, 0.0102 µM (active); with MDA-MB-435, 0.183 µM (active); in the experiment with COLO 205, 0.0391 µM (active). The GI50 was 0.00264 µM (active) in the experiment with MOLT-4; 4.22 µM (inactive) with A498; 0.0025 µM (active) with HCT-116; 0.269 µM (active) in the experiment on SNB-19; 0.0656 µM (active) with RPMI-8226; 3.26 µM (inactive) with HOP-92. Moreover, the GI50 in the experiment with OVCAR-3 is 1.57 µM (inactive); in the experiment on SN12C, 0.0302 µM (active); with CCRF-CEM, 0.228 µM (active); in the experiment with SW-620 it was 0.00573 µM (active); with SK-MEL-28 it was 2.61 µM (inactive); in the experiment with OVCAR-8 it was 0.163 µM (active). Also, the GI50 with MDA-MB-231 is 0.108 µM (active); with TK-10 it was 0.148 µM (active).

Consider `COc1cc2ccc(=O)oc2cc1O` [SCOPOLETIN], for which the GI50 was 53.3 µM (inactive) with SF-539; 36.1 µM (inactive) with KM12; > 100 µM (inactive) in the experiment on MDA-N; > 100 µM (inactive) in the experiment on ACHN; > 100 µM (inactive) with MDA-MB-435; 142 µM (inactive) in the experiment with COLO 205. Besides, the GI50 is 28.8 µM (inactive) with MOLT-4; 80.4 µM (inactive) with A498; 56.4 µM (inactive) with HCT-116; 44 µM (inactive) with SNB-19; 46.1 µM (inactive) in the experiment on RPMI-8226; 206 µM (inactive) in the experiment with HOP-92. In addition, the GI50 is 69.8 µM (inactive) with OVCAR-3; 51.4 µM (inactive) in the experiment on SN12C; 30.4 µM (inactive) in the experiment on CCRF-CEM; 67.3 µM (inactive) with SW-620; 73.3 µM (inactive) with SK-MEL-28; 52.1 µM (inactive) in the experiment on OVCAR-8. The GI50 in the experiment on MDA-MB-231 and with TK-10 was > 100 µM (inactive) in each case.

As to `COC1CC2C=CC3C4OC2(/C(C)=C/C(C)C(C(C)O)OC1=O)C3C(O)C(C)C4OC(=O)c1ccc[nH]1` (stereo not given), the GI50 was 59.6 µM (inactive) in the experiment with SF-539; 21 µM (inactive) with KM12; 45.5 µM (inactive) in the experiment on MDA-N; > 100 µM (inactive) with ACHN; 58.1 µM (inactive) in the experiment on MDA-MB-435; > 100 µM (inactive) in the experiment on COLO 205. Moreover, the GI50 in the experiment on MOLT-4 is 23.4 µM (inactive); with A498, > 100 µM (inactive); with HCT-116, 49.3 µM (inactive); in the experiment on SNB-19, > 100 µM (inactive); with RPMI-8226, 35.6 µM (inactive); in the experiment on HOP-92, > 100 µM (inactive). The GI50 was > 100 µM (inactive) with OVCAR-3; > 100 µM (inactive) with SN12C; 25.9 µM (inactive) in the experiment on CCRF-CEM; > 100 µM (inactive) in the experiment on SW-620; > 100 µM (inactive) with SK-MEL-28; 48.9 µM (inactive) in the experiment on OVCAR-8. In addition, the GI50 with MDA-MB-231 and in the experiment on TK-10 was > 100 µM (inactive) in each case.

In the case of `CCNc1ncnc2sc(SCc3ccccc3)nc12`, the GI50 in the experiment with SF-539 was > 100 µM (inactive); in the experiment on KM12 it was 48.4 µM (inactive); in the experiment with MDA-N, > 100 µM (inactive); in the experiment with ACHN it was 70.6 µM (inactive); in the experiment on MDA-MB-435, > 100 µM (inactive); in the experiment with COLO 205 it was 36.1 µM (inactive). For the same compound, the GI50 in the experiment with MOLT-4 was 25.9 µM (inactive); with A498, 61.9 µM (inactive); in the experiment on HCT-116, 85.9 µM (inactive); with SNB-19 it was > 100 µM (inactive); in the experiment with RPMI-8226 it was 43.3 µM (inactive); with HOP-92 it was 19.6 µM (inactive). Besides, the GI50 is > 100 µM (inactive) in the experiment with OVCAR-3; > 100 µM (inactive) in the experiment on SN12C; 33.9 µM (inactive) with CCRF-CEM; > 100 µM (inactive) in the experiment with SW-620; > 100 µM (inactive) in the experiment with SK-MEL-28; 80.9 µM (inactive) in the experiment with OVCAR-8. For the same compound, the figures for the GI50 with MDA-MB-231 and in the experiment with TK-10 were > 100 µM (inactive) and 60.7 µM (inactive), respectively.

Regarding `Cc1cccc2oc3c(CC(=O)O)cccc3c(=O)c12`, the GI50 in the experiment with SF-539, in the experiment with KM12, with MDA-N, in the experiment with ACHN, in the experiment on MDA-MB-435 and in the experiment on COLO 205 was > 100 µM (inactive) each time. Also, the GI50 with MOLT-4, in the experiment with A498, in the experiment with HCT-116, with SNB-19, in the experiment on RPMI-8226 and in the experiment with HOP-92 was > 100 µM (inactive) in each case. In addition, the GI50 in the experiment with OVCAR-3, with SN12C, in the experiment with CCRF-CEM, in the experiment with SW-620, in the experiment with SK-MEL-28 and with OVCAR-8 was > 100 µM (inactive) in each case. Also, the GI50 in the experiment with MDA-MB-231 and in the experiment with TK-10 was > 100 µM (inactive) each time.
